In brackets after ≈: the same amount, converted by molar mass.
Columns and labels:
Assay in all cases: Agar dilution MIC
E. faecalis MRO 04205 = format: cell-based, Enterococcus faecalis; settings: Enterococcus faecalis, MRO04205, 35° C., 16-20 hours, read-out: Antimicrobial Screening (MIC)
Protocol: (§1) Briefly, the compounds of invention were weighed, dissolved in dimethyl sulfoxide, serially two fold diluted in the same solvent and then incorporated into molten Mueller Hinton Agar (MHA) in a petridish just before solidification, with each petridish containing a different concentration of a compound.
(§2) The bacterial inoculum was prepared by picking 3 to 5 well isolated bacterial colonies with the same morphological appearance from an 18-24 hours old culture with an inoculating loop, transferring the growth to a tube containing 3 mL of normal saline and adjusting the turbidity of the saline suspension to 0.5 Mc Farland Turbidity Standard equivalent to a bacterial population of 1.5×10^8 colony forming units (CFU) per mL of suspension. The suspension was diluted 1:10 in saline (i.e. 0.5 mL suspension 4.5 mL saline) to get a bacterial population of 1.5×10^7 CFU/mL as inoculum.
(§3) The inoculated petridishes were incubated at 35° C. in an ambient atmosphere for 16-20 hours.

E. faecalis ATCC 51299 = format: cell-based, Enterococcus faecalis; settings: Enterococcus faecalis, ATCC51299, 35° C., 16-20 hours, read-out: Antimicrobial Screening (MIC)
Protocol: as §1, §2, §3

E. faecalis MRO 04035 = format: cell-based, Enterococcus faecalis; settings: Enterococcus faecalis, MRO04035, 35° C., 16-20 hours, read-out: Antimicrobial Screening (MIC)
Protocol: as §1, §2, §3

E. faecalis ATCC 29212 = format: cell-based, Enterococcus faecalis; settings: Enterococcus faecalis, ATCC29212, 35° C., 16-20 hours, read-out: Antimicrobial Screening (MIC)
Protocol: as §1, §2, §3

E. faecalis MRO 04050 = format: cell-based, Enterococcus faecalis; settings: Enterococcus faecalis, MRO04050, 35° C., 16-20 hours, read-out: Antimicrobial Screening (MIC)
Protocol: as §1, §2, §3

S. epidermidis MRO 02045 = format: cell-based; settings: Staphylococcus epidermidis, MRO02045, 35° C., 16-20 hours, read-out: Antimicrobial Screening (MIC)
Protocol: as §1, §2, §3

[1] = test system: S. saprophyticus MRO 02003; format: cell-based; settings: Staphylococcus saprophyticus, MRO02003, 35° C., 16-20 hours, read-out: Antimicrobial Screening (MIC)
Protocol: as §1, §2, §3

S. epidermidis MRO 02095 = format: cell-based; settings: Staphylococcus epidermidis, MRO02095, 35° C., 16-20 hours, read-out: Antimicrobial Screening (MIC)
Protocol: as §1, §2, §3

S. epidermidis MRO 02002 = format: cell-based; settings: Staphylococcus epidermidis, MRO02002, 35° C., 16-20 hours, read-out: Antimicrobial Screening (MIC)
Protocol: as §1, §2, §3

[2] = test system: S. epidermidis MRO 002046; format: cell-based; settings: Staphylococcus epidermidis, MRO002046, 35° C., 16-20 hours, read-out: Antimicrobial Screening (MIC)
Protocol: as §1, §2, §3

[3] = test system: S. haemolyticus MRO 02064; format: cell-based; settings: Staphylococcus haemolyticus, MRO02064, 35° C., 16-20 hours, read-out: Antimicrobial Screening (MIC)
Protocol: as §1, §2, §3

[4] = test system: M. catarrhalis ATCC 43628; format: cell-based, Moraxella catarrhalis; settings: Moraxella catarrhalis, ATCC43628, 35° C., 16-20 hours, read-out: Antimicrobial Screening (MIC)
Protocol: as §1, §2, §3

[5] = test system: M. catarrhalis ATCC 43617; format: cell-based, Moraxella catarrhalis; settings: Moraxella catarrhalis, ATCC43617, 35° C., 16-20 hours, read-out: Antimicrobial Screening (MIC)
Protocol: as §1, §2, §3

[6] = test system: M. catarrhalis ATCC 43627; format: cell-based, Moraxella catarrhalis; settings: Moraxella catarrhalis, ATCC43627, 35° C., 16-20 hours, read-out: Antimicrobial Screening (MIC)
Protocol: as §1, §2, §3

E. faecium MRO 04038 = format: cell-based, Enterococcus faecium; settings: Enterococcus faecium, MRO04038, 35° C., 16-20 hours, read-out: Antimicrobial Screening (MIC)
Protocol: as §1, §2, §3

E. faecium MRO 04037 = format: cell-based, Enterococcus faecium; settings: Enterococcus faecium, MRO04037, 35° C., 16-20 hours, read-out: Antimicrobial Screening (MIC)
Protocol: as §1, §2, §3

E. faecium MRO 04198 = format: cell-based, Enterococcus faecium; settings: Enterococcus faecium, MRO04198, 35° C., 16-20 hours, read-out: Antimicrobial Screening (MIC)
Protocol: as §1, §2, §3

E. faecium ATCC 700221 = format: cell-based, Enterococcus faecium; settings: Enterococcus faecium, ATCC700221, 35° C., 16-20 hours, read-out: Antimicrobial Screening (MIC)
Protocol: as §1, §2, §3

S. aureus MRO 00013 = format: cell-based, Staphylococcus aureus; settings: Staphylococcus aureus, MRO00013, 35° C., 16-20 hours, read-out: Antimicrobial Screening (MIC)
Protocol: as §1, §2, §3

S. aureus MRO 00059 = format: cell-based, Staphylococcus aureus; settings: Staphylococcus aureus, MRO00059, 35° C., 16-20 hours, read-out: Antimicrobial Screening (MIC)
Protocol: as §1, §2, §3

S. aureus MRO 0003 = format: cell-based, Staphylococcus aureus; settings: Staphylococcus aureus, MRO0003, 35° C., 16-20 hours, read-out: Antimicrobial Screening (MIC)
Protocol: as §1, §2, §3

S. aureus MRO 00030 = format: cell-based, Staphylococcus aureus; settings: Staphylococcus aureus, MRO00030, 35° C., 16-20 hours, read-out: Antimicrobial Screening (MIC)
Protocol: as §1, §2, §3

S. aureus MRO 0001 = format: cell-based, Staphylococcus aureus; settings: Staphylococcus aureus, MRO0001, 35° C., 16-20 hours, read-out: Antimicrobial Screening (MIC)
Protocol: as §1, §2, §3

S. aureus ATCC 43300 = format: cell-based, Staphylococcus aureus; settings: Staphylococcus aureus, ATCC43300, 35° C., 16-20 hours, read-out: Antimicrobial Screening (MIC)
Protocol: as §1, §2, §3

S. aureus MRO 00055 = format: cell-based, Staphylococcus aureus; settings: Staphylococcus aureus, MRO00055, 35° C., 16-20 hours, read-out: Antimicrobial Screening (MIC)
Protocol: as §1, §2, §3

S. aureus MRO 00048 = format: cell-based, Staphylococcus aureus; settings: Staphylococcus aureus, MRO00048, 35° C., 16-20 hours, read-out: Antimicrobial Screening (MIC)
Protocol: as §1, §2, §3

S. aureus MRO 002053 = format: cell-based, Staphylococcus aureus; settings: Staphylococcus aureus, MRO002053, 35° C., 16-20 hours, read-out: Antimicrobial Screening (MIC)
Protocol: as §1, §2, §3

S. aureus ATCC 29213 = format: cell-based, Staphylococcus aureus; settings: Staphylococcus aureus, ATCC29213, 35° C., 16-20 hours, read-out: Antimicrobial Screening (MIC)
Protocol: as §1, §2, §3

## COC(=S)NC[C@H]1CN(c2ccc(N3CCN(C(=O)C4CC4)CC3)c(F)c2)C(=O)O1 [Example 47, (S)—O-Methyl (3-(4-(4-(cyclopropanecarbonyl)piperazin-1-yl)-3-fluorophenyl)-2-oxooxazolidin-5-yl)methylcarbamothioate]
E. faecalis MRO 04205
  MIC: 0.5 µg/mL (≈ 1.15 µM)
E. faecalis ATCC 51299
  MIC: 0.5 µg/mL (≈ 1.15 µM)
E. faecalis MRO 04035
  MIC: 0.5 µg/mL (≈ 1.15 µM)
E. faecalis ATCC 29212
  MIC: 0.5 µg/mL (≈ 1.15 µM)
E. faecalis MRO 04050
  MIC: 0.5 µg/mL (≈ 1.15 µM)
S. epidermidis MRO 02045
  MIC: 1 µg/mL (≈ 2.29 µM)
[1]
  MIC: 1 µg/mL (≈ 2.29 µM)
S. epidermidis MRO 02095
  MIC: 0.5 µg/mL (≈ 1.15 µM)
S. epidermidis MRO 02002
  MIC: 1 µg/mL (≈ 2.29 µM)
[2]
  MIC: 0.5 µg/mL (≈ 1.15 µM)
[3]
  MIC: 0.5 µg/mL (≈ 1.15 µM)
[4]
  MIC: 2 µg/mL (≈ 4.58 µM)
[5]
  MIC: 1 µg/mL (≈ 2.29 µM)
[6]
  MIC: 2 µg/mL (≈ 4.58 µM)
E. faecium MRO 04038
  MIC: 0.5 µg/mL (≈ 1.15 µM)
E. faecium MRO 04037
  MIC: 0.5 µg/mL (≈ 1.15 µM)
E. faecium MRO 04198
  MIC: 0.5 µg/mL (≈ 1.15 µM)
E. faecium ATCC 700221
  MIC: 0.5 µg/mL (≈ 1.15 µM)
S. aureus MRO 00013
  MIC: 1 µg/mL (≈ 2.29 µM)
S. aureus MRO 00059
  MIC: 0.5 µg/mL (≈ 1.15 µM)
S. aureus MRO 0003
  MIC: 1 µg/mL (≈ 2.29 µM)
S. aureus MRO 00030
  MIC: 1 µg/mL (≈ 2.29 µM)
S. aureus MRO 0001
  MIC: 0.5 µg/mL (≈ 1.15 µM)
S. aureus ATCC 43300
  MIC: 0.5 µg/mL (≈ 1.15 µM)
S. aureus MRO 00055
  MIC: 1 µg/mL (≈ 2.29 µM)
S. aureus MRO 00048
  MIC: 0.5 µg/mL (≈ 1.15 µM)
S. aureus MRO 002053
  MIC: 0.5 µg/mL (≈ 1.15 µM)
S. aureus ATCC 29213
  MIC: 1 µg/mL (≈ 2.29 µM)
